The record followed here is patent US6710044B2, “Technical field” (NeuroSearch A/S, priority 1996, dated 2004).

What is called melting point is the temperature, or range, at which the solid turns liquid.

“And” between values parts separate entries of the source, which are not always exact repeats. Equal entries are not always repeated.

On to `N#Cc1ccc2c(c1)ncn2-c1cccc(N2CCCCC2)c1`, for which the melting point was in the range of 106 to 108 °C. To `CN1CCN(c2cccc(-n3cnc4cc(C#N)ccc43)c2)CC1` belongs 177 to 179 °C. With `CN1CCCC(c2cccc(-n3cnc4cc(C#N)ccc43)c2)C1.Cl` (stereo not drawn), the melting point was 158 to 160 °C. As for `ON=Cc1ccc2c(c1)ncn2-c1cccc(N2CCCCC2)c1`, the figure is 213 to 214 °C. As for `ON=Cc1ccc2c(c1)ncn2-c1cccc(N2CCCC2)c1`, the figure is 242 to 244 °C; as for `CN1CCN(c2cccc(-n3cnc4cc(C=NO)ccc43)c2)CC1`, 224 to 227 °C; as for `CC(C)ON=Cc1ccc2c(c1)ncn2-c1cccc(N2CCCCC2)c1`, 127 to 128 °C. Turning to `CON=Cc1ccc2c(c1)ncn2-c1cccc(N2CCCCC2)c1`, the melting point was 107 to 108 °C.

With `CC(=O)c1ccc2c(c1)ncn2-c1cccc(N2CCN(C(C)=NO)CC2)c1`, the melting point fell in the range of 240 to 241 °C. The compound `CCON=C(C)c1ccc2c(c1)ncn2-c1cccc(N2CCN(C)CC2)c1.Cl` gave a melting point of 62 to 63 °C. To `CCON=C(C)c1ccc2c(c1)ncn2-c1cccc(N2CCCC2)c1` belongs 118 to 120 °C; to `CCON=C(C)c1ccc2c(c1)ncn2-c1cccc(N2CCCCC2)c1`, 88 to 89 °C; to `CC(=NOC(C)C)c1ccc2c(c1)ncn2-c1cccc(C2CCCN(C)C2)c1.Cl` (stereo not drawn), 48 to 55 °C. As for `CC(=NOC(C)C)c1ccc2c(c1)ncn2-c1cccc(N2CCN(CCO)CC2)c1.Cl`, the figure is 165 to 169 °C.

`CC(=O)c1ccc2c(c1)ncn2-c1cccc(N2CCN(C(C)=NOC(C)C)CC2)c1.Cl`: the melting point was 160 to 163 °C. On to `CN1CCN(c2cccc(-n3cnc4cc(-c5ccoc5)ccc43)c2)CC1`, for which the melting point lay within 129 to 130 °C. As for `CN1CCCC(c2cccc(-n3cnc4cc(-c5ccoc5)ccc43)c2)C1` (stereo not drawn), the figure is 96 to 97 °C; as for `CN1CCN(c2cccc(-n3cnc4cc(-c5ccccc5)ccc43)c2)CC1`, 131 to 132 °C; as for `CN1CCCC(c2cccc(-n3cnc4cc(-c5ccccc5)ccc43)c2)C1` (stereo not drawn), 42 to 44 °C. As for `CN1CCCC(c2cccc(-n3cnc4cc(-c5nc(C6CC6)no5)ccc43)c2)C1.Cl` (stereo not drawn), the figure is 184 to 190 °C.

`CN1CCCC(c2cccc(-n3cnc4cc(C(C)(C)C)ccc43)c2)C1.Cl` (stereo not drawn) came in with a melting point of 200 °C.

For `CCOC(=O)c1ccc2c(c1)ncn2-c1cccc(N2CCN(C)CC2)c1`, the melting point lay in the range of 86 to 87 °C. For the compound `CCOC(=O)c1ccc2c(c1)ncn2-c1cccc(N2CCN(CCO)CC2)c1.Cl`, the melting point was in the range of 233 to 236 °C.

In turn, `CCOC(=O)c1ccc2c(c1)ncn2-c1cccc(N2CCN(C(C)=O)CC2)c1` returned a melting point of 155 to 156 °C. To `CCOC(=O)CN1CCN(c2cccc(-n3cnc4cc(C(=O)OCC)ccc43)c2)CC1.Cl` belongs 196 to 200 °C; to `CCOC(=O)C=Cc1ccc2c(c1)ncn2-c1cccc(N2CCCCC2)c1`, 85 to 87 °C; to `CCOC(=O)C=Cc1ccc2c(c1)ncn2-c1cccc(N2CCN(C)CC2)c1`, 133 to 134 °C. As for `COC(=O)C=Cc1ccc2c(c1)ncn2-c1cccc(N2CCN(C)CC2)c1`, the figure is 138 to 140 °C; as for `COC(=O)c1ccc2c(c1)ncn2-c1cccc(C2CN(C(C)=O)CCN2)c1` (stereo not drawn), 189 to 191 °C.

Turning to `COC(=O)c1ccc2c(c1)ncn2-c1cccc(N2CCN(C)CC2)c1`, the melting point was in the range of 119 to 121 °C. As for `CC(C)OC(=O)c1ccc2c(c1)ncn2-c1cccc(N2CCCCC2)c1`, the figure is 160 to 161 °C.

`CCCOC(=O)c1ccc2c(c1)ncn2-c1cccc(N2CCCC2)c1` came in with a melting point of 170 to 172 °C. As to `CC(C)OC(=O)c1ccc2c(c1)ncn2-c1cccc(N2CCN(C)CC2)c1`, the melting point lay in the range of 110 to 111 °C.

Compound `CN1CCCC(c2cccc(-n3cnc4cc(C(=O)OCC5CC5)ccc43)c2)C1` (stereo not drawn) had a melting point of 111 to 113 °C. Compound `CCOC(=O)Cc1ccc2c(c1)ncn2-c1cccc(N2CCN(C)CC2)c1.Cl` gave a melting point of 180 to 182 °C. The compound `CC(=O)c1ccc2c(c1)ncn2-c1cccc(C(=NOC(C)C)OC2CCN(C)CC2)c1` yielded a melting point of 106 to 107 °C. With `CC(=O)c1ccc2c(c1)ncn2-c1cccc(C(=NOC(C)C)OC2CCCN(C)C2)c1` (stereo not drawn), the melting point was 83 to 84 °C. As for `CCOC(=O)CON=C(C)c1ccc2c(c1)ncn2-c1cccc(C2CCCN(C)C2)c1.Cl` (stereo not drawn), the figure is 73 to 75 °C; as for `COC(=O)CON=C(C)c1ccc2c(c1)ncn2-c1cccc(C2CCCN(C)C2)c1` (stereo not drawn), 104 to 106 °C; as for `COC(=O)C(C)(C)ON=C(C)c1ccc2c(c1)ncn2-c1cccc(C2CCCN(C)C2)c1` (stereo not drawn), 113 to 116 °C and 113 to 115 °C. To `CCOC(CN1CCN(c2cccc(-n3cnc4cc(C(C)=O)ccc43)c2)CC1)=NO` belongs 154 to 156 °C; to `COC(=O)C(C)(C)ON=C(C)N1CCN(c2cccc(-n3cnc4cc(C(C)=O)ccc43)c2)CC1`, 119 to 120 °C. As for `COC(=O)CON=C(C)N1CCN(c2cccc(-n3cnc4cc(C(C)=O)ccc43)c2)CC1`, the figure is 137 to 139 °C; as for `CCCON=C(CN1CCN(c2cccc(-n3cnc4cc(C(C)=O)ccc43)c2)CC1)OC`, 120 to 122 °C. `CCOC(=O)C(=CN1CCN(c2cccc(-n3cnc4cc(C(C)=O)ccc43)c2)CC1)C(=NOC(C)C)OCC`: the melting point fell in the range of 128 to 129 °C.

`COC(=O)C(C)(C)ON=Cc1ccc2c(c1)ncn2-c1cccc(N2CCN(C)CC2)c1.Cl`: the melting point lay in the range of 199 to 201 °C. As to `COC(=O)c1cccc(-n2cnc3cc(-c4ccno4)ccc32)c1`, the melting point lay in the range of 190 to 191 °C. To `CCOC(=O)c1cccc(-n2cnc3cc(-c4ccccc4)ccc32)c1` belongs 122 to 123 °C; to `Cl.O=C(OCc1cccnc1)c1cccc(-n2cnc3cc(-c4ccccc4)ccc32)c1`, 195 to 197 °C; to `CN1CCCC(OC(=O)c2cccc(-n3cnc4cc(-c5ccccc5)ccc43)c2)C1.Cl` (stereo not drawn), 180 to 191 °C.

Regarding `CN1CCC(OC(=O)c2cccc(-n3cnc4cc(-c5ccccc5)ccc43)c2)CC1.Cl`, the melting point is 187 to 188 °C.

On to `CCOC(=O)c1cccc(-n2cnc3cc(-c4ccoc4)ccc32)c1`, for which the melting point was in the range of 87 to 89 °C.

Regarding `CCOC(=O)c1cccc(-n2cnc3cc(C4CCOC4)ccc32)c1.Cl` (stereo not drawn), the melting point lay in the range of 168 to 171 °C. With `CCOC(=O)CN1CCN(c2cccc(-n3cnc4cc(-c5ccoc5)ccc43)c2)CC1`, the melting point was in the range of 110 to 112 °C. As for `CC(C)(C)OC(=O)N1CCN(c2cccc(-n3cnc4cc(-c5ccoc5)ccc43)c2)CC1`, the figure is 162 to 164 °C. To `COC(=O)CN1CCN(c2cccc(-n3cnc4cc(-c5ccoc5)ccc43)c2)CC1` belongs 124 to 125 °C. The compound `COC(=O)C=CN1CCN(c2cccc(-n3cnc4cc(-c5ccoc5)ccc43)c2)CC1` came in with a melting point of 131 to 133 °C.
